ChEMBL document CHEMBL1201862, “PubChem BioAssay data set” (2004)
The source made the active and inactive calls.

Key:
[1] = A Cell Based Secondary Assay To Explore Cytotoxicity of Compounds that Sensitize Mycobacterium Tuberculosis to Beta-Lactam Antibiotics.; type: functional
Staphylococcus aureus = assay: Inhibitors of Bacterial Quorum Sensing Structure Activity Relationship (SAR) Analysis: Dose Response Assay. [Related pubchem assays: 700, 527 ]; type: functional, organism-based
Procathepsin L = Procathepsin L (Homo sapiens, UniProt P07711)
Aspartyl aminopeptidase = target: T1, Aspartyl aminopeptidase (Plasmodium falciparum 3D7, UniProt Q8I2J3)
T1 sequence (Q8I2J3 whole entry): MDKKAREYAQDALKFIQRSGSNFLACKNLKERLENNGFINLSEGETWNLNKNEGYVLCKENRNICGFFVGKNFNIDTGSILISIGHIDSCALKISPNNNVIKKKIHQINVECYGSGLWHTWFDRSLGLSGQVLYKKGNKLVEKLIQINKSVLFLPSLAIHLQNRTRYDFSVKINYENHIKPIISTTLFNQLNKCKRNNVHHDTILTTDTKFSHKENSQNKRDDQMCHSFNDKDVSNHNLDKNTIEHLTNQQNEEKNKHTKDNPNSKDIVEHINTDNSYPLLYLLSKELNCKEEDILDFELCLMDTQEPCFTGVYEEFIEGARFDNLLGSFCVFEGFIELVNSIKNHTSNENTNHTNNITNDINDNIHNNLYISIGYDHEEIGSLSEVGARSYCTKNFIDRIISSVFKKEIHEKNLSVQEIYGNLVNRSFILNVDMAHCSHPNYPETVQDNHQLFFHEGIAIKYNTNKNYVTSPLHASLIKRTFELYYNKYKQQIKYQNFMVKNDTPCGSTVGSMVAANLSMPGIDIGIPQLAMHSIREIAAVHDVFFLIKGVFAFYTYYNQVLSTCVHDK

[2] = HIV-1 Env-mediated cell fusion inhibitors, dose response, CCR5-tropic Env (AID 2279); type: functional
Aminopeptidase N = target: T2, Aminopeptidase N (Plasmodium falciparum FcB1/Columbia, UniProt O96935); assay: P. falciparum M1AAP inhibitors, biochemical, fluorogenic H-Leu-NHMec substrate, 1536-well (AID 1445); set-up: species or system Plasmodium falciparum 3D7, 3D7
T2 sequence (O96935 whole entry): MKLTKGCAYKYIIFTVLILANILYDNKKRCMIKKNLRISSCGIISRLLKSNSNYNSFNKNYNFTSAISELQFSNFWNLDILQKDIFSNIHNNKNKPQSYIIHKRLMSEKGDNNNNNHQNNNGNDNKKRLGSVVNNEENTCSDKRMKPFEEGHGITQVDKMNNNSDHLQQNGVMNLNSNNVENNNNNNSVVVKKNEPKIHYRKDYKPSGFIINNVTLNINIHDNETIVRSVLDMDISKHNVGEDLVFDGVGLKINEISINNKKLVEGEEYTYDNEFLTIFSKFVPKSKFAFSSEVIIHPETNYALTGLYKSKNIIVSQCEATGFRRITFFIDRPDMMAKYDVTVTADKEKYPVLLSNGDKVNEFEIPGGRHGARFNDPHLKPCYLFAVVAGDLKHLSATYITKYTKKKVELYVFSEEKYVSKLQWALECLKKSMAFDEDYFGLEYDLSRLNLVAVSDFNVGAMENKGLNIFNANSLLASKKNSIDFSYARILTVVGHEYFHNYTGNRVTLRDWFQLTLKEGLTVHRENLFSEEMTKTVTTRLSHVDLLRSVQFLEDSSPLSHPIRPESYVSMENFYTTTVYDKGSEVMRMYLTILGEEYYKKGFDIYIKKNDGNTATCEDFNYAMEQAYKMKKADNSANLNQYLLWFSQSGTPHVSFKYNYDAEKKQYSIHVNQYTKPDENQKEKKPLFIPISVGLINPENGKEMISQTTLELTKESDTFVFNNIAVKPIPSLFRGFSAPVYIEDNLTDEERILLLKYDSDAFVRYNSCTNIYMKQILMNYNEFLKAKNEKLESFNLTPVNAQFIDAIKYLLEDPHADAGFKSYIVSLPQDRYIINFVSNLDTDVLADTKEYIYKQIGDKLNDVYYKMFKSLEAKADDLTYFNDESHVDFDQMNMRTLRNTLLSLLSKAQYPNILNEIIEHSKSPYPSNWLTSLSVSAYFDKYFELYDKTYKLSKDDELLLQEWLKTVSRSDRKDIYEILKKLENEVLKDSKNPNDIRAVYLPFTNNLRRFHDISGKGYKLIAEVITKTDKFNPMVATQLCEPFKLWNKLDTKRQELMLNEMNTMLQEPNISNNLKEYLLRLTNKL

[3] = target: T3, Short transient receptor potential channel 4 (Mus musculus, UniProt Q9QUQ5); assay: mouse TRPC4 channel inhibitors, dose response, cell-based, HEK293 TRPC4/mu-opioid, Fluo-4 calcium (AID 434942); type: functional;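 note: potency of inhibitors blocking the TRPC4 calcium response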
T3 sequence (Q9QUQ5 whole entry): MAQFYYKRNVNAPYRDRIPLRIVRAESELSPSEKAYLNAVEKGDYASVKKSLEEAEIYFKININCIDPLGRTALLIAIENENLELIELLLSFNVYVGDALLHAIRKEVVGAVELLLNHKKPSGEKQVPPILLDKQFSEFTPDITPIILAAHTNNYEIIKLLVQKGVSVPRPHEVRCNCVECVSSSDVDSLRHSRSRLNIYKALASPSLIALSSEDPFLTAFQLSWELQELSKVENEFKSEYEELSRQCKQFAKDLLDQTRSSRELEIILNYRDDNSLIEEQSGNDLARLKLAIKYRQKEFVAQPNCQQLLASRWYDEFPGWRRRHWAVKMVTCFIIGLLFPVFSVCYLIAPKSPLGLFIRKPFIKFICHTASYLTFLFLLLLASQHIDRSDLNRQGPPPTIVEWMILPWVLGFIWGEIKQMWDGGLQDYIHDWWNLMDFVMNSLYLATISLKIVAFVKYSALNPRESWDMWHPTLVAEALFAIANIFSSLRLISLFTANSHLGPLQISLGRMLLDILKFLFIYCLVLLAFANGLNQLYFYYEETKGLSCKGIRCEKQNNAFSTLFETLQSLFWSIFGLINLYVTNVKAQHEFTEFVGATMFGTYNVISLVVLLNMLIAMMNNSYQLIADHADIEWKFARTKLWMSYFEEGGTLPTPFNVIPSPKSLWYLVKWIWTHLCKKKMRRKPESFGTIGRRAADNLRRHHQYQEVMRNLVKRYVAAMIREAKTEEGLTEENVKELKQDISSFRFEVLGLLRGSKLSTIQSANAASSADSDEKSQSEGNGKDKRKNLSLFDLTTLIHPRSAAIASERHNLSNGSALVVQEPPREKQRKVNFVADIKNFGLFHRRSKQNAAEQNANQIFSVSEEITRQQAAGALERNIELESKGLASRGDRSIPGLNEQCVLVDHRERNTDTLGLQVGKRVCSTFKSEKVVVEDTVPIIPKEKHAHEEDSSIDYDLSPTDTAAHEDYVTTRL

BJ [4] = assay: cytotoxicity toward BJ-TERT-LT-ST fibroblasts, dose response, cell-based, RAS-independent, luminescence (AID 1935); type: functional; settings: Homo sapiens;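 note: BJ fibroblasts immortalized with TERT plus LT and ST oncogenes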
[5] = target: T4, Luciferin 4-monooxygenase (Photinus pyralis, UniProt P08659); assay: firefly luciferase enzyme inhibitors, dose response, biochemical, luminescence (AID 1891)
[6] = target: T4, Luciferin 4-monooxygenase; assay: Counter Screen for Luciferase-based Assay Positives. [Related pubchem assays: 620, 618, 411 ]
BJ [7] = assay: cells; type: functional, cell-based; settings: Homo sapiens
[8] = Luminescence Cell-Based Dose Confirmation HTS to Identify Inhibitors of Platelet Dense Granule Release. [Related pubchem assays: 1663 (Primary HTS), 1678 (Summary of Project)]; type: functional
BJ [9] = assay: cytotoxicity toward BJ-TERT fibroblasts, dose response, cell-based, RAS-independent, luminescence (AID 1933); type: functional; settings: Homo sapiens
HT-1080 = assay: cytotoxicity in HT1080 fibrosarcoma cells, cell-based, fluorescence readout (AID 620); type: functional; settings: Homo sapiens
[10] = target: Cyclin-dependent kinase 5/CDK5 activator 1 (Homo sapiens, UniProt Q00535); assay: CDK5/p35 kinase inhibitors, dose response, biochemical, cherry-picked samples, set 2 (AID 504545)
BJ [11] = assay: cytotoxicity toward Ras-transformed BJeLR fibroblasts, dose response, cell-based, alamar blue fluorescence, cherrypicked samples (AID 2631); type: functional; settings: Homo sapiens;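 note: confirmatory dose-response assay in RAS-dependent BJ fibroblasts engineered with TERT, LT and ST, with cytotoxicity read by fluorescence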
[12] = cytotoxicity toward DRD oncogenic fibroblasts, dose response, cell-based, non-viral oncogenic, luminescence (AID 1934); type: functional; settings: Homo sapiens
[13] = target: T5, Neuropeptide Y receptor type 2 (Homo sapiens, UniProt P49146); assay: Fluorescence-based cell-based high-throughput dose response assay for agonists of NPY-Y2. [Related pubchem assays: 1703 (Screening assay (CNGC inhibitors).), 1359 (Screening assay (NPY-Y2 potentiators or agonists).), 1304 (Screening assay (NPY-Y1 potentiators or agonists).), 1710 (Screening assay (NPY-Y2 agonists).), 1791 (Summary AID.)]; type: functional
T5 sequence (P49146 whole entry): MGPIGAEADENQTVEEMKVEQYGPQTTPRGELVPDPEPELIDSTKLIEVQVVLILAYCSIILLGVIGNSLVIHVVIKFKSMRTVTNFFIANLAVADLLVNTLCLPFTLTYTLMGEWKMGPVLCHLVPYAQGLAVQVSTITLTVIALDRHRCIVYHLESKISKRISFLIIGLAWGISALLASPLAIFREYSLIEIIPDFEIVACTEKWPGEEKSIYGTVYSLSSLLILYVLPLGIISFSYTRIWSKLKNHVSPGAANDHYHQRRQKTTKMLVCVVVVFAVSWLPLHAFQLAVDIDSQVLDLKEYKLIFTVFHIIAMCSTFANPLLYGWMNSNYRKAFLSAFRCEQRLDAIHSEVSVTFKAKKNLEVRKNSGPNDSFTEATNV

HEK293 = assay: Fluorescence-based counterscreen for potentiators or agonists of NPY-Y2: cell-based high-throughput dose response assay to identify inhibitors of cyclic nucleotide gated ion channel (CNGC) activity. In this assay, the parental HEK293 cell line transfected with a cyclic-nucleotide gated ion channel (CNGC)-based cAMP sensor is used to measure inhibition of isoproterenol-induced CNGC activity by test compound.; type: functional; settings: Homo sapiens;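 note: stimulus is 1 µM isoproterenol at EC100 plus PDE inhibitor Ro 20-1724 at 25 µM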
[14] = target: T6, Neuropeptide Y receptor type 1 (Homo sapiens, UniProt P25929); assay: Fluorescence-based counterscreen for agonists of NPY-Y2: cell-based high-throughput dose response assay for agonists of NPY-Y1.; type: functional
T6 sequence (P25929 whole entry): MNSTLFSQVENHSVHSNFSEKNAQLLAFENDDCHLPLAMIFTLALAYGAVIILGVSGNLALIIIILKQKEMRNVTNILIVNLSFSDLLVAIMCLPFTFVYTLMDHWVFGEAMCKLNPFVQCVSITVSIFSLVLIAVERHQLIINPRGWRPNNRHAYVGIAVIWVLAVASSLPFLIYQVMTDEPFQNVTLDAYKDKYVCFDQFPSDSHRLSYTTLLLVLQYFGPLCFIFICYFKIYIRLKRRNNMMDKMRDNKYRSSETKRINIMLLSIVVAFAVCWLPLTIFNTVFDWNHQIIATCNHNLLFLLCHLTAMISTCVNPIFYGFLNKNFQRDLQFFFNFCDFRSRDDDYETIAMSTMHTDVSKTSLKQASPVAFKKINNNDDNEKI

NS3 = NS3 (Hepatitis C virus, UniProt A3EZJ3); assay: PubChem AID 2173; set-up: species or system Hepacivirus hominis
fMet-Leu-Phe receptor = target: T7, fMet-Leu-Phe receptor (Homo sapiens, UniProt P21462); assay: FPR ligands, dose response (AID 519); type: functional
T7 sequence (P21462 whole entry): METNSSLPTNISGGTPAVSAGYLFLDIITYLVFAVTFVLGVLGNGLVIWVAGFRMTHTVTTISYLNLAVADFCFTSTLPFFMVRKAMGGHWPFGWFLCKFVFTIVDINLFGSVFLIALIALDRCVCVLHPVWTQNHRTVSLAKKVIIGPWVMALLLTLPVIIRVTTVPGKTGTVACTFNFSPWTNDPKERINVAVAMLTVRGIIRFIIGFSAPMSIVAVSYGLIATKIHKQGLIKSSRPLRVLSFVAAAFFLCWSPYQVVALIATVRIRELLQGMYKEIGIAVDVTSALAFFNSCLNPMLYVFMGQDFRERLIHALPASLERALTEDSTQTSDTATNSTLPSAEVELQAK

T4 sequence (P08659 whole entry): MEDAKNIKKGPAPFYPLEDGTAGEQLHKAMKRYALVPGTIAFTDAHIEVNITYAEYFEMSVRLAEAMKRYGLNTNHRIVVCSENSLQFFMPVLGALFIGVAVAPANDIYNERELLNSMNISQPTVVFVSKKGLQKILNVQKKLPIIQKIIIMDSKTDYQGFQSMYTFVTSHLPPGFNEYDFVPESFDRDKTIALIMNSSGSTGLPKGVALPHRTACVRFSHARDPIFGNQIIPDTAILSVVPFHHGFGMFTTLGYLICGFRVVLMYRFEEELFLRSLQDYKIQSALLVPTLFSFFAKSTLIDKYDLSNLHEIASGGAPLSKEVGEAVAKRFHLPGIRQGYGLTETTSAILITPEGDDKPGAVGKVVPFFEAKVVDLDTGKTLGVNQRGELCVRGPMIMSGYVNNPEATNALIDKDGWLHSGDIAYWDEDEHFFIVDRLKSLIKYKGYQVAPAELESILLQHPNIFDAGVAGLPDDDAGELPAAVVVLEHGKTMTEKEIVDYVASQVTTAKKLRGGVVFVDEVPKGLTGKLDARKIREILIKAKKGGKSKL
Sequence of Procathepsin L (P07711 whole entry): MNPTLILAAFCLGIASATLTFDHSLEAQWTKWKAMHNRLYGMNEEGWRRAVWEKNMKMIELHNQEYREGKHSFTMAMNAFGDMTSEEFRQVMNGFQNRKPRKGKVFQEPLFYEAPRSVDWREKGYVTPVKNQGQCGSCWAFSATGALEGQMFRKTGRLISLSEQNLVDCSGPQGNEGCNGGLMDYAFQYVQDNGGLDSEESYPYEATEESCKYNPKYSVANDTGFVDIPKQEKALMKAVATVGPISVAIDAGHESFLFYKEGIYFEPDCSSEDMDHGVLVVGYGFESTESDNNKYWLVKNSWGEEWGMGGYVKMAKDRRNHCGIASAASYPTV
Sequence of Cyclin-dependent kinase 5/CDK5 activator 1 (Q00535 whole entry): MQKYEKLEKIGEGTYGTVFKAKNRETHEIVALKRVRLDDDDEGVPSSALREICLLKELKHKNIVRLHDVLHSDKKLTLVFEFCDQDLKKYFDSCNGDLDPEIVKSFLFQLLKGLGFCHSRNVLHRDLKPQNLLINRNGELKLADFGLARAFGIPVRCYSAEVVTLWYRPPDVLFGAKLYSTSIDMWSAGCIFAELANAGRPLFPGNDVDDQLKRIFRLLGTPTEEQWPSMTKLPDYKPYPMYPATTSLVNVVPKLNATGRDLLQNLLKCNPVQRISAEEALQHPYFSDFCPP
Sequence of Cyclin-dependent kinase 5/CDK5 activator 1 (Q15078 whole entry, further chain): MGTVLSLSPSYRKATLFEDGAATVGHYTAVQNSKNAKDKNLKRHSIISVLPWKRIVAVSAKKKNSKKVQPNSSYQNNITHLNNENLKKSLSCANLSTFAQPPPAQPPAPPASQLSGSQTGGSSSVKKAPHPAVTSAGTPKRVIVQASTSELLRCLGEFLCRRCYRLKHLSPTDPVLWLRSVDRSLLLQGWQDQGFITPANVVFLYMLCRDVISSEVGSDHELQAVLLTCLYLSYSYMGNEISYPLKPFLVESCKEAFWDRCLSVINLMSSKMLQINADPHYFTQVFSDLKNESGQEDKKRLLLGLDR
Sequence of NS3 (A3EZJ3 whole entry): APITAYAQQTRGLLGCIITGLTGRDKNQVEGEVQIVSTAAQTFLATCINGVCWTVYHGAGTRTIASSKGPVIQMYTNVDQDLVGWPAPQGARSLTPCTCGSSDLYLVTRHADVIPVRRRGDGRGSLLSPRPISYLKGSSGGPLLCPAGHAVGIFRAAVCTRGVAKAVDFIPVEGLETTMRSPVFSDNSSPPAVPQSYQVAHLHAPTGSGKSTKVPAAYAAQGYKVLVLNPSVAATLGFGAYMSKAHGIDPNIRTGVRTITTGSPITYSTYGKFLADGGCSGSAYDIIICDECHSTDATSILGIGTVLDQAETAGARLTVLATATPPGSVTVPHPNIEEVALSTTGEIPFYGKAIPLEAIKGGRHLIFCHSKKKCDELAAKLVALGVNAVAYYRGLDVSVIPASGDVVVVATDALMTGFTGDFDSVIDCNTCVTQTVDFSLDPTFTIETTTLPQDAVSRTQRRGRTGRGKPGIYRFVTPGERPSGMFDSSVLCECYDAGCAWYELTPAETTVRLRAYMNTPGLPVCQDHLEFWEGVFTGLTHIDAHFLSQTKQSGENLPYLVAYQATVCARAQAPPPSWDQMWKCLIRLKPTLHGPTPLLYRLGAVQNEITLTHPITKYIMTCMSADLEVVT

O=C1/C(=C/c2ccncc2)CCc2ccccc21
CC50 [1]: 35.4 µM (active)

CCc1oc2ccccc2c1C(=O)c1ccc(O)cc1 [BENZARONE]
IC50 (Staphylococcus aureus): 1.29 µM (active)

O=C(O)c1ccc(O)c(O)c1 [PROTOCATECHUIC ACID]
IC50 (Procathepsin L): > 59.6 µM (not active) | IC50 (Aspartyl aminopeptidase): 0.479 µM (active)

COc1cc(/C=C2\SC(=O)N(c3ccccc3Cl)C2=O)cc([N+](=O)[O-])c1O
IC50 [2]: 42.5 µM (active) | IC50 (Aminopeptidase N): 65.8 µM (active) | EC50 [3]: 1.06 µM (active)

COc1ccc(-c2cc3nc(C)cc(N)n3n2)cc1
EC50 (BJ [4]): 17.6 µM (active) | EC50 [5]: 0.513 µM (active) | EC50 [6]: 2.85 µM (active) | EC50 (BJ [7]): 4.45 µM (active) | EC50 [8]: 0.621 µM (active) | EC50 (BJ [9]): 3.85 µM (inconclusive) | EC50 (HT-1080): > 50 µM (not active) | AC50 [10]: 17.5 µM (active) | EC50 (BJ [11]): > 133 µM (inactive) | EC50 [12]: 6.14 µM (active)

NC(=O)c1ccc2nc(NC(=O)c3ccc(N)cc3)sc2c1
EC50 [13]: > 35.4 µM (not active) | EC50 (HEK293): > 35.4 µM (not active) | EC50 [14]: > 35.4 µM (not active)

CCOc1ccc(C(=O)C2=C(O)C(=O)N(c3nc(C)c(C)s3)C2c2ccco2)cc1 (configuration not stated)
IC50 (NS3): 6.35 µM (active) | Ki (fMet-Leu-Phe receptor): 57.7 µM (inactive)
